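Step 1: Grow cells in 96-well plates. Step 2: Expose to compound for 48 hours at 5 concentrations. Step 3: Interpolate endpoints linearly; if unreached, use highest concentration. GI50: concentration for 50% inhibition of growth. TGI denotes the concentration required for complete inhibition of growth.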
What follows are molecules tested on RPMI-8226 leukemia (assay: NCI tumour cell line growth inhibition, 48 h).

Row | Structure (SMILES) | GI50 [nM] | TGI [µM]
1 | CCN(CC)Cc1cc(Nc2c3ccccc3nc3cc(Cl)ccc23)ccc1O | 2320 | 6.27
2 | CC1=CC(=O)NP(=O)(C23CC4CC(CC(C4)C2)C3)N1 (configuration not stated) | – | > 100
3 | Oc1ccc(Cl)cc1/C=N\NC(=S)N/N=C/c1cc(Cl)ccc1O | 3450 | 34.9
4 | O=c1[nH]cc(C(F)(C(F)(F)F)C(F)(F)F)c(=O)[nH]1 | – | > 100
5 | COc1ccc2c(c1)c1c3n2CCNN=C3CCC1 | – | > 100
6 | CC(=O)[C-](C(C)=O)c1ccccc1.CC(=O)[C-](C(C)=O)c1ccccc1.CC(=O)[C-](C(C)=O)c1ccccc1.[Cl-].[Zr+4] | > 100000 | > 100
7 | CC(C)N1C(C)[C@@H](c2ccccc2)O[P@]1(=O)CC1=CCCCC1 (some centres not stated) | – | > 100
8 | COc1ccc(C2=Nc3c/c(=C\c4c(O)[nH]c5cc(Cl)ccc45)ccc3=N2)cc1 | 1730 | 4.62
9 | CN=C(N)N/N=C(\C)c1ccc2c(c1)Cc1ccccc1-2 | 1720 | 4.16
10 | COC(=O)C(=O)C(C(=O)C(=O)Nc1cc(Cl)c(Cl)cc1Cl)c1nc2ccc([N+](=O)[O-])cc2[nH]c1=O (configuration not stated) | – | > 100
11 | COc1ccc(NC(=O)C2C(=O)N(c3ccc(OC)cc3)C(=O)/C2=N\NC(N)=O)cc1 (configuration not stated) | – | > 100
12 | C/C(=N\NS(=O)(=O)c1ccc([N+](=O)[O-])cc1)c1ccc[n+]([O-])n1 | – | 7.17
13 | S=c1c2ccccc2c(=S)n2n1CC=CC2 | – | > 100
14 | CC(C)(C)Sc1nnc(SC(C)(C)C)c2c(=O)[nH]nc(SC(C)(C)C)c12 | – | 12.2
15 | CCCCNC1=C(C(=O)OCC)/C(=N/NC(=O)c2ccccc2O)CO1 | – | > 100
16 | N#CC(C(=O)CCCC(=O)Nc1ccc(Cl)cc1Cl)c1ccc(Cl)cc1 (configuration not stated) | – | > 100
17 | O=CCCCC(Sc1ccccc1)Sc1ccccc1 | – | 48.6
18 | Nc1ccn(C2OC(C(OC3OC(CO)C(O)C(N)C3O)C(O)C(O)C(O)C(O)CO)C(N)C(O)C2O)c(=O)n1 (configuration not stated) | – | > 100
19 | COc1ccc(C)cc1C1CCC(=O)O1 (configuration not stated) | – | > 100

Row | Structure (SMILES) | GI50 [nM] | TGI [µM]
20 | Cc1ccc2nc(NC(=O)C(=O)CC(=O)c3cccc4ccccc34)sc2c1 | – | > 100
21 | O=C1CCC(=O)c2sccc2N1 | – | > 100
22 | O=C(c1ccc2ccccc2c1)c1c(C(F)(F)F)n([O-])c2ccc(F)cc2[n+]1=O | 997 | 3.93
23 | CC(C(N)=O)N(C)C(=O)c1cnc2ccccc2c1 (configuration not stated) | – | > 100
24 | CCCCCCCCCCCCCCCCCC(=O)NCC(COP(=O)(O)O)OCC (configuration not stated) | – | > 100
25 | COc1ccc2c(c1)/C(=N/OC(C)=O)c1c-2cnc2ccccc12 | 22300 | 81.5
26 | Cn1nc(-c2ccccc2)c(C(=O)/C=C/c2ccc(Cl)cc2)c(N2CCCC2)c1=O | – | 7.84
27 | Cc1cc2nc(-c3c(F)cccc3Cl)n(Cc3c(F)cccc3Cl)c2cc1C | 16300 | > 100
28 | O=C1C=Cc2ncccc2C1=O | – | 62.4
29 | C/C(CC(=O)Nc1cccc([N+](=O)[O-])c1)=N\NC(=O)CC#N | – | > 100
30 | [CH3][Sn]1([CH3])[O]CC(COc2cc(Cl)c(Cl)cc2Cl)[O]1 (configuration not stated) | > 100000 | > 100
31 | CCc1cc(Cc2ccc(C)c(NC(=O)C(=O)C3C(=O)NC(=O)NC3=O)c2CC)cc(C)c1NC(=O)C(=O)C1C(=O)NC(=O)NC1=O | – | > 100
32 | CC(=O)OC(=O)O/C=C\CCl | – | > 100
33 | O=C(Nc1nc2ccccc2s1)c1cc(-c2ccc(F)cc2)n2nc(-c3ccccc3)cc2n1 | 5590 | > 100
34 | C/C(=N/O)c1ccc(Nc2cc(-n3ccnc3)c3ccccc3n2)cc1 | 716 | 4.42
35 | Cc1ccc(/C=N/NS(=O)(=O)c2ccccc2)c(C)c1 | – | > 100
36 | C#CCOCn1cnc2ncnc(N)c21 | – | > 100
37 | Cc1noc(/N=C2\C=C(Nc3onc(C)c3C)C(=O)c3ccccc32)c1C | – | > 100

Each molecule was assayed on KM12 colon (assay: NCI tumour cell line growth inhibition, 48 h).

Row | Structure (SMILES) | TGI [µM] | GI50 [nM]
38 | CC1=C(N2CC2)C(=O)c2ccccc2C1=O | 2.64 | –
39 | O=S1(=O)c2ccccc2N=C(c2ccccc2Cl)CC1c1ccc(F)cc1 (configuration not stated) | 31.8 | –
40 | CCN(CC)Cc1cc(Nc2c3ccccc3nc3cc(Cl)ccc23)ccc1O | 3.77 | 1590
41 | CC1=CC(=O)NP(=O)(C23CC4CC(CC(C4)C2)C3)N1 (configuration not stated) | > 100 | –
42 | Oc1ccc(Cl)cc1/C=N\NC(=S)N/N=C/c1cc(Cl)ccc1O | 44.7 | 2680
43 | O=c1[nH]cc(C(F)(C(F)(F)F)C(F)(F)F)c(=O)[nH]1 | > 100 | –
44 | COc1ccc2c(c1)c1c3n2CCNN=C3CCC1 | > 100 | –
45 | CC(=O)[C-](C(C)=O)c1ccccc1.CC(=O)[C-](C(C)=O)c1ccccc1.CC(=O)[C-](C(C)=O)c1ccccc1.[Cl-].[Zr+4] | > 100 | > 100000
46 | CC(C)N1C(C)[C@@H](c2ccccc2)O[P@]1(=O)CC1=CCCCC1 (some centres not stated) | > 100 | –
47 | COc1ccc(C2=Nc3c/c(=C\c4c(O)[nH]c5cc(Cl)ccc45)ccc3=N2)cc1 | 14.2 | 2490
48 | CN=C(N)N/N=C(\C)c1ccc2c(c1)Cc1ccccc1-2 | 3.47 | 1720
49 | COC(=O)C(=O)C(C(=O)C(=O)Nc1cc(Cl)c(Cl)cc1Cl)c1nc2ccc([N+](=O)[O-])cc2[nH]c1=O (configuration not stated) | > 100 | –
50 | COc1ccc(NC(=O)C2C(=O)N(c3ccc(OC)cc3)C(=O)/C2=N\NC(N)=O)cc1 (configuration not stated) | 43.2 | –
51 | C/C(=N\NS(=O)(=O)c1ccc([N+](=O)[O-])cc1)c1ccc[n+]([O-])n1 | 33.8 | –
52 | S=c1c2ccccc2c(=S)n2n1CC=CC2 | > 100 | –
53 | CC(C)(C)Sc1nnc(SC(C)(C)C)c2c(=O)[nH]nc(SC(C)(C)C)c12 | 25.6 | –
54 | CCCCNC1=C(C(=O)OCC)/C(=N/NC(=O)c2ccccc2O)CO1 | > 100 | –
55 | N#CC(C(=O)CCCC(=O)Nc1ccc(Cl)cc1Cl)c1ccc(Cl)cc1 (configuration not stated) | > 100 | –
56 | O=CCCCC(Sc1ccccc1)Sc1ccccc1 | > 100 | –

Row | Structure (SMILES) | TGI [µM] | GI50 [nM]
57 | Nc1ccn(C2OC(C(OC3OC(CO)C(O)C(N)C3O)C(O)C(O)C(O)C(O)CO)C(N)C(O)C2O)c(=O)n1 (configuration not stated) | > 100 | –
58 | COc1ccc(C)cc1C1CCC(=O)O1 (configuration not stated) | > 100 | –
59 | Cc1ccc2nc(NC(=O)C(=O)CC(=O)c3cccc4ccccc34)sc2c1 | > 100 | –
60 | O=C1CCC(=O)c2sccc2N1 | > 100 | –
61 | O=C(c1ccc2ccccc2c1)c1c(C(F)(F)F)n([O-])c2ccc(F)cc2[n+]1=O | 2.46 | 673
62 | CC(C(N)=O)N(C)C(=O)c1cnc2ccccc2c1 (configuration not stated) | > 100 | –
63 | CCCCCCCCCCCCCCCCCC(=O)NCC(COP(=O)(O)O)OCC (configuration not stated) | 58.3 | –
64 | COc1ccc2c(c1)/C(=N/OC(C)=O)c1c-2cnc2ccccc12 | 78.7 | 25000
65 | Cc1cc2nc(-c3c(F)cccc3Cl)n(Cc3c(F)cccc3Cl)c2cc1C | 37.7 | 10500
66 | O=C1C=Cc2ncccc2C1=O | > 58.5 | –
67 | C/C(CC(=O)Nc1cccc([N+](=O)[O-])c1)=N\NC(=O)CC#N | > 100 | –
68 | [CH3][Sn]1([CH3])[O]CC(COc2cc(Cl)c(Cl)cc2Cl)[O]1 (configuration not stated) | > 100 | 45800
69 | CCc1cc(Cc2ccc(C)c(NC(=O)C(=O)C3C(=O)NC(=O)NC3=O)c2CC)cc(C)c1NC(=O)C(=O)C1C(=O)NC(=O)NC1=O | > 100 | –
70 | CC(=O)OC(=O)O/C=C\CCl | > 100 | –
71 | CC(=O)c1c2c(cc3c1CC1(C3)Cc3cc4c(c(C(=O)O)c3C1)CCC4)CCC2 (configuration not stated) | > 100 | –
72 | C/C(=N/O)c1ccc(Nc2cc(-n3ccnc3)c3ccccc3n2)cc1 | 18.5 | 2640
73 | Cc1ccc(/C=N/NS(=O)(=O)c2ccccc2)c(C)c1 | > 100 | –
74 | C#CCOCn1cnc2ncnc(N)c21 | > 100 | –
75 | Cc1noc(/N=C2\C=C(Nc3onc(C)c3C)C(=O)c3ccccc32)c1C | > 100 | –

What follows are molecules tested on HOP-62 NSCLC (assay: NCI tumour cell line growth inhibition, 48 h).

Row | Structure (SMILES) | TGI [µM] | GI50 [nM]
76 | CC1=C(N2CC2)C(=O)c2ccccc2C1=O | 3.21 | –
77 | CCN(CC)Cc1cc(Nc2c3ccccc3nc3cc(Cl)ccc23)ccc1O | 3.16 | 1730
78 | CC1=CC(=O)NP(=O)(C23CC4CC(CC(C4)C2)C3)N1 (configuration not stated) | > 100 | –
79 | Oc1ccc(Cl)cc1/C=N\NC(=S)N/N=C/c1cc(Cl)ccc1O | > 100 | 2470
80 | O=c1[nH]cc(C(F)(C(F)(F)F)C(F)(F)F)c(=O)[nH]1 | > 100 | –
81 | COc1ccc2c(c1)c1c3n2CCNN=C3CCC1 | > 100 | –
82 | CC(=O)[C-](C(C)=O)c1ccccc1.CC(=O)[C-](C(C)=O)c1ccccc1.CC(=O)[C-](C(C)=O)c1ccccc1.[Cl-].[Zr+4] | > 100 | > 100000
83 | CC(C)N1C(C)[C@@H](c2ccccc2)O[P@]1(=O)CC1=CCCCC1 (some centres not stated) | > 100 | –
